Laboratory results from ChEMBL document CHEMBL1201862, “PubChem BioAssay data set” (2004).
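The compound was tested at five concentrations on cells cultured in 96-well plates, with a 48-hour exposure period. At the GI50, growth is halved.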 Calls of active or inactive are those of the source. Cut-off read from the data, not from the text of the source: active = GI50 up to about 1.1 µM and inactive = higher.

Key:
Assay in all cases: growth of human tumour cells (NCI), 48 h
M14 = test system: M14
NCI-H23 = test system: NCI-H23
XF498 = test system: XF498
ACHN = test system: ACHN
DMS-273 = test system: DMS-273
HOP-18 = test system: HOP-18
SNB-78 = test system: SNB-78
CCRF-CEM = test system: CCRF-CEM
OVCAR-4 = test system: OVCAR-4
U-251 = test system: U-251
CAKI-1 = test system: CAKI-1
M19-MEL = test system: M19-MEL
NCI-H522 = test system: NCI-H522
SK-OV-3 = test system: SK-OV-3
NCI/ADR-RES = test system: NCI/ADR-RES

Measured: GI50

CC1CCN(c2cc(-c3cc4ccccc4o3)oc(=O)c2C#N)CC1
inactive: M14 > 100 µM | NCI-H23 > 100 µM | XF498 > 100 µM | ACHN > 100 µM | DMS-273 > 100 µM | HOP-18 > 100 µM | SNB-78 > 10 µM | CCRF-CEM > 100 µM | OVCAR-4 18.8 µM | U-251 > 100 µM | CAKI-1 19.9 µM

COc1cc2c3cc1Oc1c(O)c(OC)cc4c1C(Cc1ccc(O)c(c1)Oc1ccc(cc1)CC3N(C)CC2)N(C)CC4 (stereo unspecified)
inactive: M19-MEL 21.7 µM | M14 3.11 µM | NCI-H23 23.7 µM | XF498 19.4 µM | ACHN 19 µM | NCI-H522 15.1 µM | DMS-273 13 µM | HOP-18 27.9 µM | SNB-78 24.9 µM | SK-OV-3 23.3 µM | CCRF-CEM 8.57 µM | OVCAR-4 13.8 µM | U-251 14.2 µM | CAKI-1 17.3 µM

c1ccc(N2CCN(CCCN3CCc4c([nH]c5ccccc45)C3c3cccnc3)CC2)cc1 (stereo unspecified)
inactive: M19-MEL > 92 µM | M14 20.2 µM | NCI-H23 > 100 µM | XF498 5.04 µM | ACHN > 92.9 µM | NCI-H522 86.9 µM | DMS-273 > 47 µM | HOP-18 > 100 µM | SNB-78 > 100 µM | SK-OV-3 > 100 µM | CCRF-CEM 88.3 µM | OVCAR-4 98.9 µM | U-251 19.1 µM | CAKI-1 > 100 µM

COCOc1ccc(OC)cc1
inactive: M19-MEL > 100 µM | NCI-H23 > 100 µM | XF498 > 100 µM | NCI/ADR-RES > 100 µM | DMS-273 > 100 µM | HOP-18 > 100 µM | SNB-78 > 100 µM | SK-OV-3 > 100 µM | CCRF-CEM > 100 µM | OVCAR-4 > 100 µM | U-251 > 100 µM | CAKI-1 > 100 µM

CN(C)c1ccc(C=C2C(=O)OC(C)(C)OC2=O)cc1Br
inactive: M19-MEL > 100 µM | M14 > 100 µM | NCI-H23 > 100 µM | XF498 > 100 µM | ACHN > 100 µM | NCI-H522 > 100 µM | DMS-273 > 100 µM | HOP-18 > 100 µM | SNB-78 > 10 µM | SK-OV-3 > 100 µM | CCRF-CEM > 100 µM | OVCAR-4 > 100 µM | U-251 > 100 µM | CAKI-1 > 100 µM

COC(=O)CCC(=O)CC(=O)C1=NS(=O)(=O)c2nc(S(N)(=O)=O)c(Cl)cc2N1
inactive: M19-MEL > 100 µM | M14 > 100 µM | NCI-H23 > 100 µM | XF498 > 100 µM | ACHN > 100 µM | NCI-H522 64.3 µM | DMS-273 72.3 µM | HOP-18 > 100 µM | SK-OV-3 > 100 µM | CCRF-CEM 45 µM | OVCAR-4 > 100 µM | U-251 > 100 µM | CAKI-1 > 100 µM

CC(C)(C)c1cc(Cc2ccc(S(C)(=O)=O)cc2)c(O)c(C(C)(C)C)c1
inactive: M19-MEL 17.1 µM | M14 15.4 µM | NCI-H23 16.8 µM | XF498 15.2 µM | ACHN 13.7 µM | NCI-H522 12.1 µM | DMS-273 14.3 µM | HOP-18 22.7 µM | SNB-78 16.3 µM | SK-OV-3 21.7 µM | CCRF-CEM 12.3 µM | OVCAR-4 14.4 µM | U-251 15.1 µM | CAKI-1 16.2 µM

N#Cc1ccc([N+](=O)[O-])cc1NC(N)=S
inactive: M19-MEL > 100 µM | M14 > 100 µM | XF498 > 100 µM | NCI-H522 > 100 µM | DMS-273 > 100 µM | HOP-18 > 100 µM | SNB-78 > 100 µM | SK-OV-3 > 100 µM | U-251 > 100 µM | CAKI-1 > 100 µM

CCOC(=O)C(C(=O)OCC)c1ccc([N+](=O)[O-])o1
inactive: M19-MEL 17.5 µM | M14 13.7 µM | NCI-H23 17.6 µM | XF498 17.1 µM | ACHN 10.2 µM | NCI-H522 1.74 µM | DMS-273 18 µM | HOP-18 20 µM | SNB-78 14 µM | SK-OV-3 62.2 µM | CCRF-CEM 2.53 µM | OVCAR-4 17.3 µM | U-251 18.7 µM | CAKI-1 6.18 µM
